Laboratory results published in patent US20130190314A1, “DERIVATIVES OF 6-CYCLOAMINO-2-THIENYL-3-(PYRIDIN-4-YL)IMIDAZO[1,2-b]-PYRIDAZINE AND 6-CYCLOAMINO-2-FURANYL-3-(PYRIDIN-4-YL)IMIDAZO[1,2-b]-PYRIDAZINE, PREPARATION AND THERAPEUTIC USE THEREOF” (priority 2008, published 2013).

Molecular target: T1, casein kinase 1 epsilon (CK1 epsilon) (Homo sapiens, UniProt P49674)
T1 construct: Invitrogen Corporation (alternative)
Test: Filter-plate assay of ATP-33P: inhibition of phosphorylation of casein by CK1 epsilon
Format: biochemical
Conditions: casein substrate, 10 μM ATP, 2 hours at ambient temperature
Description: The capacity of the compounds of the invention to inhibit the phosphorylation of casein by casein kinase 1 epsilon and delta can be evaluated according to the procedure described in document US 2005/0131012.
Filter-Plate Assay of ATP-^33P for the Screening of CK1 Epsilon Inhibitors:
The effect of the compounds on inhibition of the phosphorylation of casein by the enzyme casein kinase 1 epsilon (CK1 epsilon) is measured using a casein assay with filtration of ATP-^33P in vitro.
Casein kinase 1 epsilon (0.58 mg/ml) is obtained via fermentation and purification processes carried out according to methods well known to those skilled in the art, or may also be obtained from Invitrogen Corporation™ (human CK1 epsilon).
The compounds are tested at five different concentrations so as to generate IC50 values, i.e. the concentration at which a compound is capable of inhibiting the enzymatic activity by 50%, or alternatively the % inhibition at a concentration of 10 micromolar.
“U”-bottomed Falcon plates are prepared by placing 5 μl of solutions of the compounds according to the invention at concentrations of 10, 1, 0.1, 0.01 or 0.001 μM in various wells. The solutions of the compounds according to the invention at these various concentrations are prepared by diluting in a test buffer (50 mM Tris, pH 7.5, […], 2 mM DTT and 1 mM EGTA) a stock solution in DMSO at a concentration of 10 mM. Next, 5 μl of dephosphorylated casein are added to a final concentration of 0.2 μg/μl, 20 μl of CK1 epsilon are added to a final concentration of 3 ng/μl, and 20 μl of ATP-^33P are added to a final concentration of 0.02 μCi/μl mixed with cold ATP (10 μM final—approximately 2×10^6 CPM per well). The final total test volume per well is equal to 50 μl.
The “U”-bottomed Falcon® test plate mentioned above is vortexed, and then incubated at ambient temperature for 2 hours. After 2 hours, the reaction is stopped by adding an ice-cold solution of 65 μl of cold ATP (2 mM) prepared in test buffer. 100 μl of the reaction mixture are then transferred from the “U”-bottomed Falcon®plate into Millipore MAPH filter plates, preimpregnated with 25 μl of ice-cold 100% TCA. […]
The plates are left to dry overnight at ambient temperature. […] The radiation emitted by each well is then measured for 2 minutes in a Packard® Topcount NXT scintillation counter, in which the values of CPM/well are measured.
The % inhibition of the capacity of the enzyme to phosphorylate the substrate (casein) is determined for each concentration of compound tested. These inhibition data expressed as percentages are used to calculate the IC50 value for each compound compared with the controls.
The kinetic studies determined the KM value for ATP as being 21 μM in this test system.

T1 sequence (P49674 whole entry): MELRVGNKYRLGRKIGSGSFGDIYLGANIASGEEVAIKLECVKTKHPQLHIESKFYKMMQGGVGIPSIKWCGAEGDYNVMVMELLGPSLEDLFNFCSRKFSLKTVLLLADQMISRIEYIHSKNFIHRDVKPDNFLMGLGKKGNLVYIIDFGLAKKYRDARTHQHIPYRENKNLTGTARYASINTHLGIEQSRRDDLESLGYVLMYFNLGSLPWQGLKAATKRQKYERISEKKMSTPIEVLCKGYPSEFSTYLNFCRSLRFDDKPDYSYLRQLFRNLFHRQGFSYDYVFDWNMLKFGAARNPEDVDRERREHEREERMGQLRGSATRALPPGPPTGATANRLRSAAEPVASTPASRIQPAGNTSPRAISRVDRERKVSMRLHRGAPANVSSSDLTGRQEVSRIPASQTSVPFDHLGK

SMILES	IC50 [µM]
CN1C[C@@H]2CN(c3ccc4nc(-c5ccoc5)c(-c5ccncc5)n4n3)C[C@@H]2C1 [Compound 34]	0.015
CN1CCN(c2ccc3nc(-c4ccsc4)c(-c4ccncc4)n3n2)CC1 [Compound 18, 6-(4-methylpiperazin-1-yl)-3-(pyridin-4-yl)-2-(thien-3-yl)imidazo[1,2-b]pyridazine]	0.025

Tested on: Mper1-luc Rat-1 (P2C4) fibroblasts
Test: Circadian cell assay: mPer1-promoter luciferase reporter, period prolongation
Format: cell-based
Conditions: effective concentration that induced a 1-hour prolongation of the circadian period
Description: Mper1-luc Rat-1 (P2C4) fibroblast cultures were prepared by dividing the cultures every 3-4 days (approximately 10-20% of confluence) on 150 cm^2 degassed polystyrene tissue culture flasks (Falcon® #35-5001) and maintained in growth medium [EMEM (Cellgro #10-010-CV); 10% foetal bovine serum (FBS; Gibco #16000-044); and 50 I.U./ml of penicillin-streptomycin (Cellgro #30-001-CI)] at 37° C. and under 5% CO2.
Cells obtained from Rat-1 fibroblast cultures at 30-50% of confluence as described above were co-transfected with vectors containing the selectable marker for zeocin resistance for a stable transfection and a luciferase reporter gene controlled by the mPer-1 promoter. After 24 to 48 hours, the cultures were divided on 96-well plates and maintained in growth medium supplemented with 50-100 μg/ml of zeocin (Invitrogen® #45-0430) for 10-14 days. The zeocin-resistant stable transfectants were evaluated for the expression of the reporter gene by adding 100 μM luciferin (Promega® #E1603®) to the growth medium and by assaying the luciferase activity on a TopCount® scintillation counter (Packard Model #C384V00). The Rat-1 cell clones expressing both zeocin resistance and luciferase activity controlled by mPer1 were serum-shock synchronized with 50% horse serum [HS (Gibco® #16050-122)] and the activity of the circadian reporter was evaluated. The P2C4 clone of Mper1-luc Rat-1 fibroblasts was selected to test the compound.
Mper1-luc Rat-1 (P2C4) fibroblasts at 40-50% of confluence, obtained according to the protocol described above, were plated out onto 96-well opaque tissue culture plates (Perkin Elmer® #6005680). The cultures are maintained in growth medium supplemented with 100 μg/mL of zeocin (Invitrogen #45-0430) until they have reached 100% of confluence (48-72 h). The cultures were then synchronized with 100 μl of synchronization medium [EMEM (Cellgro #10-010-CV); 100 I.U./ml of penicillin-streptomycin (Cellgro #30-001-C1); HS at 50% (Gibco #16050-122)] for 2 hours at 37° C. and under 5% CO2. After synchronization, the cultures were rinsed with 100 μl of EMEM (Cellgro #10-010-CV) for 10 minutes at ambient temperature. After rinsing, the medium was replaced with 300 μl of CO2 independent medium [CO2I (Gibco #18045-088); 2 mM L-glutamine (Cellgro #25-005-C1); 100 I.U./ml of penicillin-streptomycin (Cellgro #30-001-C1); 100 μM luciferin (Promega #E 1603)]. […]
The period analysis was performed either by determining the interval between the relative light emission minima over several days or by Fourier transform. […] The data were analysed by adjusting a hyperbolic curve to the data expressed as change of period (Y-axis) as a function of the concentration of the test compound (X-axis) in the XLfit™ software, and the CE Delta (t+1 h) was interpolated from this curve.

SMILES	CE Delta (t + 1 h) [nM]
CN1C[C@@H]2CN(c3ccc4nc(-c5ccoc5)c(-c5ccncc5)n4n3)C[C@@H]2C1 [Compound 34]	17
CN1CCN(c2ccc3nc(-c4ccsc4)c(-c4ccncc4)n3n2)CC1 [Compound 18, 6-(4-methylpiperazin-1-yl)-3-(pyridin-4-yl)-2-(thien-3-yl)imidazo[1,2-b]pyridazine]	74 to 83

Tested on: not given
Test: not given
Conditions: not given

SMILES	melting point [°C]
CN1C[C@@H]2CN(c3ccc4nc(-c5ccc(Cl)s5)c(-c5ccncc5)n4n3)C[C@@H]2C1 [Compound 15, 2-(5-chlorothien-2-yl)-6-[(cis)-5-methylhexahydropyrrolo[3,4-c]pyrrol-2(1H)-yl]-3-(pyridin-4-yl)imidazo[1,2-b]pyridazine]	217 to 220
Cc1ccc(-c2nc3ccc(N4CCN(CCO)CC4)nn3c2-c2ccncc2)o1 [Compound 28, 2-{4-[2-(5-methylfuran-2-yl)-3-pyridin-4-ylimidazo[1,2-b]pyridazin-6-yl]piperazin-1-yl}ethanol]	190 to 192
c1csc(-c2nc3ccc(N4CC5CCCNC5C4)nn3c2-c2ccncc2)c1 (stereo not drawn) [Compound 7, 6-(Octahydro-6H-pyrrolo[3,4-b]pyridin-6-yl)-3-(pyridin-4-yl)-2-(thien-2-yl)imidazo[1,2-b]pyridazine]	176 to 179
CC(C)(O)CN1CCN(c2ccc3nc(-c4ccsc4)c(-c4ccncc4)n3n2)CC1 [Compound 19, 2-methyl-1-[4-(3-(pyridin-4-yl)-2-(thien-3-yl)imidazo[1,2-b]pyridazin-6-yl)piperazin-1-yl]propan-2-ol]	178 to 180
Cc1ccc(-c2nc3ccc(N4CCN(CC(C)(C)O)CC4)nn3c2-c2ccncc2)o1 [Compound 29, 2-methyl-1-{4-[2-(5-methylfuran-2-yl)-3-pyridin-4-ylimidazo[1,2-b]pyridazin-6-yl]piperazin-1-yl}propan-2-ol]	147 to 149
C[C@@H]1CN(c2ccc3nc(-c4ccc(Cl)s4)c(-c4ccncc4)n3n2)C[C@H](C)N1 [Compound 13, 2-(5-chlorothien-2-yl)-6-[(cis)-3,5-dimethylpiperazin-1-yl]-3-(pyridin-4-yl)imidazo[1,2-b]pyridazine]	220 to 222
c1csc(-c2nc3ccc(N4CCNCC4)nn3c2-c2ccncc2)c1 [Compound 1, 6-(piperazin-1-yl)-3-(pyridin-4-yl)-2-(thien-2-yl)imidazo[1,2-b]pyridazine]	217 to 220
c1csc(-c2nc3ccc(N4CCC5(CCCNC5)CC4)nn3c2-c2ccncc2)c1 [Compound 8, 9-(3-(pyridin-4-yl)-2-(thien-2-yl)imidazo[1,2-b]pyridazin-6-yl)-2,9-diazaspiro[5.5]undecane]	184 to 189
CN1CCN(c2ccc3nc(-c4ccsc4)c(-c4ccncc4)n3n2)CC1 [Compound 18, 6-(4-methylpiperazin-1-yl)-3-(pyridin-4-yl)-2-(thien-3-yl)imidazo[1,2-b]pyridazine]	177 to 179
c1csc(-c2nc3ccc(N4C[C@H]5CNC[C@H]5C4)nn3c2-c2ccncc2)c1 [Compound 6, 6-[(cis)-hexahydropyrrolo[3,4-c]pyrrol-2(1H)-yl]-3-(pyridin-4-yl)-2-(thien-2-yl)imidazo[1,2-b]pyridazine]	179 to 183
c1cc(-c2c(-c3ccsc3)nc3ccc(N4CCC(N5CCCC5)CC4)nn23)ccn1 [Compound 23, 3-(pyridin-4-yl)-6-(4-pyrrolidin-1-ylpiperidin-1-yl)-2-(thien-3-yl)imidazo[1,2-b]pyridazine]	168 to 170
c1cc(-c2c(-c3ccsc3)nc3ccc(N4CCC5(CCCNC5)CC4)nn23)ccn1 [Compound 22, 9-[3-(pyridin-4-yl)-2-(thien-3-yl)imidazo[1,2-b]pyridazin-6-yl]-2,9-diazaspiro[5.5]undecane]	133 to 168
CC(C)(O)CN1CCN(c2ccc3nc(-c4ccoc4)c(-c4ccncc4)n3n2)CC1 [Compound 31, 1-[4-(2-furan-3-yl-3-pyridin-4-ylimidazo[1,2-b]pyridazin-6-yl)piperazin-1-yl]-2-methylpropan-2-ol]	139 to 149
Cc1ccc(-c2nc3ccc(N4C[C@H]5CN(C)C[C@H]5C4)nn3c2-c2ccncc2)o1 [Compound 33, 2-(5-Methylfuran-2-yl)-6-[(cis)-5-methylhexahydropyrrolo[3,4-c]pyrrol-2(1H)-yl]-3-(pyridin-4-yl)imidazo[1,2-b]pyridazine]	178 to 181
